The values that follow are results of earlier work, collected in patent publication US20060194234A1, “Methods for identifying small molecules that bind specific RNA structural motifs” (PTC Therapeutics, Inc., priority 2001, published 2006).

Data set [1] has as its system IIB (or RRE) region of HIV RNA. As to conditions: appears to result from competitive binding directly to the RRE RNA structural motif.
Data set [2] concerns 60-mer from ribosomal RNA. The note with it: literature statement in background.

On to `NC[C@@H]1O[C@H](O[C@H]2[C@@H](O)[C@H](O[C@@H]3[C@@H](O)[C@H](N)C[C@H](N)[C@H]3O[C@H]3O[C@H](CO)[C@@H](O)C[C@H]3N)O[C@@H]2CO)[C@H](N)[C@@H](O)[C@@H]1O[C@H]1O[C@H](CO)[C@@H](O)[C@H](O)[C@@H]1O` [lividomycin A], for which, in data set [1], the “block of the binding of Rev to its viral recognition element in the IIB (or RRE) region of HIV RNA” value (shortened to “block of the binding of Rev”) is “can block the binding”.
In the case of `NC[C@H]1O[C@H](O[C@H]2[C@H](O)[C@@H](O[C@H]3O[C@H](CO)[C@@H](O)[C@H](N)[C@H]3O)[C@H](N)C[C@@H]2N)[C@H](N)C[C@@H]1O` [tobramycin], the “block of the binding of Rev” value in data set [1] is “can block the binding”.
With thiostreptone, the “binding to a 60-mer from ribosomal RNA” value in data set [2] was “binds tightly”.
Regarding `NC[C@@H]1O[C@H](O[C@H]2[C@@H](O)[C@H](O[C@@H]3[C@@H](O)[C@H](N)C[C@H](N)[C@H]3O[C@H]3O[C@H](CN)[C@@H](O)[C@H](O)[C@H]3N)O[C@@H]2CO)[C@H](N)[C@@H](O)[C@@H]1O` [neomycin B], in data set [1], the “block of the binding of Rev” value is given as “can block the binding”.
